From patent publication US8394952B2 (Vertex Pharmaceuticals Incorporated, priority 2006, dated 2013)

Biological target: Plk1 (Homo sapiens, UniProt P53350)
Experiment: biochemical

Chain of Plk1 (P53350 20-338): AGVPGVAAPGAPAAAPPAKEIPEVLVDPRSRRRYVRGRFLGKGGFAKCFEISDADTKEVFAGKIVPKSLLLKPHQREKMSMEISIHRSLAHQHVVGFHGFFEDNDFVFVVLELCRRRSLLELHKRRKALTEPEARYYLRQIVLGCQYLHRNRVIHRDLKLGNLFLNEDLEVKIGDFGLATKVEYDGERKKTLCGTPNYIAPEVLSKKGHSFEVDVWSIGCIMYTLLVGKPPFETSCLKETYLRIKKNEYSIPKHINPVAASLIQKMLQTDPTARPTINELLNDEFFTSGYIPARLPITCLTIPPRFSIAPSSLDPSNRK

| Compound | Ki [nM] |
| --- | --- |
| CN1C(=O)C(C)(C)CN(C2CCCC2)c2nc(Nc3ccc(-n4ccnc4)cc3)ncc21 [Compound I-48, 2-(4-(1H-imidazol-1-yl)phenylamino)-9-cyclopentyl-8,9-dihydro-5,7,7-trimethyl-5H-pyrimido[4,5-b][1,4]diazepin-6(7H)-one] | < 10 |
| CNC(=O)c1ccc(Nc2ncc3c(n2)N(C2CCCC2)CC(C)(C)C(=O)N3C)c(OC(C)C)c1 [Compound I-50, 4-(9-cyclopentyl-6,7,8,9-tetrahydro-5,7,7-trimethyl-6-oxo-5H-pyrimido[4,5-b][1,4]diazepin-2-ylamino)-3-isopropoxy-N-methylbenzamide] | 10 to 100 |
| COc1cc(C(=O)NC2CN(C(C)C)C2)ccc1Nc1ncc2c(n1)N(C1CCCC1)CC(C)(C)C(=O)N2C [Compound I-52, 4-(9-cyclopentyl-6,7,8,9-tetrahydro-5,7,7-trimethyl-6-oxo-5H-pyrimido[4,5-b][1,4]diazepin-2-ylamino)-N-(1-isopropylazetidin-3-yl)-3-methoxybenzamide] | < 10 |
| CNC(=O)c1ccc(Nc2ncc3c(n2)N(CC2CC2)CC(C)(C)C(=O)N3C)c(OC)c1 [Compound I-58, 4-(9-(cyclopropylmethyl)-6,7,8,9-tetrahydro-5,7,7-trimethyl-6-oxo-5H-pyrimido[4,5-b][1,4]diazepin-2-ylamino)-3-methoxy-N-methylbenzamide] | < 10 |
| CNC(=O)c1ccc(Nc2ncc3c(n2)N(C2CCCC2)CC2(CC2)C(=O)N3C)c(OC)c1 [Compound I-62, 4-(9′-cyclopentyl-5′-methyl-6′-oxo-5′,6′,8′,9′-tetrahydrospiro[cyclopropane-1,7′-pyrimido[4,5-b][1,4]diazepine]-2′-ylamino)-3-methoxy-N-methylbenzamide] | < 10 |

Now from value to compound:

| Ki [nM] | Compound |
| --- | --- |
| 10 to 100 | CN1C(=O)C(C)(C)CN(C2CCCC2)c2nc(Nc3ccc(-n4cncn4)cc3)ncc21 [Compound I-49, 2-(4-(1H-1,2,4-triazol-1-yl)phenylamino)-9-cyclopentyl-8,9-dihydro-5,7,7-trimethyl-5H-pyrimido[4,5-b][1,4]diazepin-6(7H)-one] |
| < 10 | CC(C)Oc1cc(C(=O)NC2CCN(C)CC2)ccc1Nc1ncc2c(n1)N(C1CCCC1)CC(C)(C)C(=O)N2C [Compound I-51, 4-(9-cyclopentyl-6,7,8,9-tetrahydro-5,7,7-trimethyl-6-oxo-5H-pyrimido[4,5-b][1,4]diazepin-2-ylamino)-3-isopropoxy-N-(1-methylpiperidin-4-yl)benzamide] |
| < 10 | COc1cc(C(=O)NC2CN(CC3CC3)C2)ccc1Nc1ncc2c(n1)N(C1CCCC1)CC(C)(C)C(=O)N2C [Compound I-53, 4-(9-cyclopentyl-6,7,8,9-tetrahydro-5,7,7-trimethyl-6-oxo-5H-pyrimido[4,5-b][1,4]diazepin-2-ylamino)-N-(1-(cyclopropylmethyl)azetidin-3-yl)-3-methoxybenzamide] |
| 10 to 100 | CNC(=O)c1ccc(Nc2ncc3c(n2)N(C2CCOCC2)CC(C)(C)C(=O)N3C)c(OC)c1 [Compound I-56, 4-(6,7,8,9-tetrahydro-9-(tetrahydro-2H-pyran-4-yl)-5,7,7-trimethyl-6-oxo-5H-pyrimido[4,5-b][1,4]diazepin-2-ylamino)-3-methoxy-N-methylbenzamide] |
| < 10 | COc1cc(C(=O)NC2CCN(CC3CC3)CC2)ccc1Nc1ncc2c(n1)N(C1CCCC1)CC(C)(C)C(=O)N2C [Compound I-59, 4-(9-cyclopentyl-6,7,8,9-tetrahydro-5,7,7-trimethyl-6-oxo-5H-pyrimido[4,5-b][1,4]diazepin-2-ylamino)-N-(1-(cyclopropylmethyl)piperidin-4-yl)-3-methoxybenzamide] |
| < 10 | CNC(=O)c1ccc(Nc2ncc3c(n2)N(C2CCCC2)CC2(CCC2)C(=O)N3C)c(OC)c1 [Compound I-60, 4-(9′-cyclopentyl-5′-methyl-6′-oxo-5′,6′,8′,9′-tetrahydrospiro[cyclobutane-1,7′-pyrimido[4,5-b][1,4]diazepine]-2′-ylamino)-3-methoxy-N-methylbenzamide] |
